Test results: PMC10902301, “Interactions between the protein barnase and co-solutes studied by NMR” (Communications Chemistry, 2024)
pKd: −log10 of the molar value. Values joined by “and” are separate entries in the source; they are usually repeats but may differ in a detail not shown here. Identical values can stand only once. Counter-ions that a name gives are not always drawn.

Columns and labels:
protein surfaces = conditions: molecular dynamics; ref Vrbka et al J Phys Chem B 2006 110:7036-7043; cited from earlier work
barnase [1] = biological target: T1, barnase (Bacillus amyloliquefaciens, UniProt P00648, H149A); conditions: for binding to barnase (in words): from curvature of chemical shift profiles; for mL for amide protons (1HN), mean ± standard deviation over residues: single co-solute titration up to 1 M, 5 mM acetate pH 5.8
Protocol: (§1) For each titration point, protein 2D peak positions were measured and loaded into a database. […] We hypothesized that the hyperbolic parts indicate direct binding of the co-solute to the protein, while the linear parts represent indirect effects on the protein chemical shifts caused by interactions of the co-solute with the solvent, which thus leads to altered protein solvation. Linear changes in shift could also arise from co-solute-induced conformational changes in the protein. […] We therefore fitted the data to a sum of two equations: a hyperbolic curve plus a linear change. Fitting to the hyperbolic curve gives a resultant binding affinity, which can be tabulated as either a dissociation constant Kd (with units of concentration) or an association constant Ka (with units of reciprocal concentration). […] Thus in the analysis below, we use Ka when examining binding to the protein surface. We note that the linear change is in fact a binding curve with very weak affinity, and will therefore start to curve at some point. Based on the likely affinities, curvature is unlikely to become apparent until the co-solute reaches a concentration of several M.
(§2) For fitting shift changes to obtain the dissociation constant, one would normally use a quadratic equation[36]:1 Δδobs=Δδmax{([P]i+[L]i+Kd)–[([P]i+[L]i+Kd)^2−4[P]i[L]i]^1/2}/2[P]I
(§3) We have therefore used it throughout. The complete equation used here for fitting the experimental shift changes is therefore3 Δδobs=Δδmax.Li/Kd+Li+mLLi which gives three fitted values for each nucleus: Kd, Δδmax, and mL. mL is the gradient of the linear component, and gives information on the indirect effect of the co-solute on protein chemical shifts via its effect on solvent. […] We discuss later the significance of mL: for present purposes, it is an empirical parameter that describes how the co-solute affects the protein indirectly via solvent.
(§4) For these reasons, all experiments were carried out using 5 mM acetate, pH 5.8, conditions that gave reproducible peak positions while using only a very low concentration of additional solutes.
(§5) Chemical shifts of ^1HN, ^15N, and ^13C’ were measured and fitted to Eq. (3).

barnase [2] = biological target: T1, barnase; assay: biochemical; conditions: average dissociation constant Kd at thiocyanate binding region, residues 35–46, 81–86; single binding site assumed; pH 5.8
Protocol: as §1, §2, §3, §4, §5

T1 sequence (P00648 48-157 H149A): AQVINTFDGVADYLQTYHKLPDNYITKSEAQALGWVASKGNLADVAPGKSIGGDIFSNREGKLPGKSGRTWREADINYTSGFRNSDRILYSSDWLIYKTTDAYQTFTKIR

SMILES | contact times with protein surfaces in water (protein surfaces) | binding to barnase (in words) (barnase [1]) | mL for amide protons (1HN), mean ± standard deviation over residues (barnase [1]) | average Ka over all nuclei (barnase [1]; osmolyte titrations, average over residues that could be fitted) | pKd (barnase [2]) | average Ka (barnase [1]; average over binding-site residues 35–46 and 81–86, 1HN, 15N, 13C' nuclei)
O=S(=O)(O)O [sulfate, sodium sulfate] | 0.1-0.8 ns |  |  |  |  | 
Cl [chloride, sodium chloride] | 0.1-0.8 ns | overall weaker binding | –16 ± 26 ppb/M |  |  | 
C[N+](C)(C)CC(=O)O [betaine, N-trimethyl glycine] |  | no binding | +4.3 ± 15.9 ppb/M | no evidence of any binding |  | 
N#CS [thiocyanate, sodium thiocyanate] |  |  | –51 ± 51 ppb/M |  | 1.66 and ~1.66 | about 45 M^−1
CC1=N[C@H](C(=O)O)CCN1 [ectoine] |  | very little binding | +16.5 ± 21.3 ppb/M |  |  | 
C[N+](C)(C)[O-] [TMAO, trimethylamine N-oxide] |  | only very weak binding | +9.7 ± 16.9 ppb/M |  |  | 
